Source: PubChem BioAssay (NCI)
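Five concentrations, 48 hours, 96-well plates. Definition used: TGI = concentration required for complete inhibition of growth.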

What was measured:
Assay in all cases: DTP human tumour cell line panel, 48 h
[1] = test system: SW-620 colon
[2] = test system: K-562 leukemia
[3] = test system: SK-OV-3 ovarian
[4] = test system: OVCAR-3 ovarian
[5] = test system: 786-0 renal
[6] = test system: SNB-75 CNS
[7] = test system: TK-10 renal
[8] = test system: SF-295 CNS
[9] = test system: BT-549 breast
[10] = test system: M14 melanoma

Compound	TGI [1] [µM]	TGI [2] [µM]	TGI [3] [µM]	TGI [4] [µM]	TGI [5] [µM]	TGI [6] [µM]	TGI [7] [µM]	TGI [8] [µM]	TGI [9] [µM]	TGI [10] [µM]
CCOC(=O)c1c(C)n(CCN2CCN(C)CC2)c2ccc(OC)cc12	> 100	45.8	> 100	> 100	> 100	> 100	> 100	> 100	> 100	30.8
CCCNC(=O)Cn1c(-c2ccccc2)cc2ccccc21	> 100	> 100	> 100	> 100	> 100	> 100	> 100	> 100	> 100	> 100
CNc1ccc([N+](=O)[O-])cc1C(=O)N1CCC[C@H]1CO	> 100	> 100	> 100	–	> 100	> 100	> 100	> 100	> 100	> 100
Cc1cccc(/C=N/NC(=S)NC(C)(C)C)n1	> 100	> 100	> 100	> 100	> 100	> 100	> 100	> 100	> 100	> 100
COC(=O)[C@]12CCC(=O)N1[C@H](C(=O)O)Cc1c2[nH]c2ccccc12	> 100	> 100	> 100	> 100	> 100	> 100	> 100	> 100	> 100	> 100
CN(C)CCCN1C(=O)N(CCCN(C)C)c2c3cc(O)ccc3nc3c([N+](=O)[O-])ccc1c23	53.2	23.7	> 100	67.6	27.2	> 100	> 100	> 100	33.7	79.1
CN(NC(=O)/C(=C/C=C/c1ccccc1)NC(=O)c1ccccc1)C1=C(Cl)C(=O)[N+](c2ccccc2)=CC1	33.8	49.9	> 100	44.9	39.2	69.6	> 100	81.5	49.6	40.2
Fc1ccccc1C1SCC2=Nc3ccccc3CN21 (centres undefined)	> 100	> 100	> 100	> 100	> 100	> 100	> 100	> 100	> 100	> 100
CC(CN(C)C)C(O)(c1ccccc1)c1ccccc1 (centres undefined)	> 100	> 100	> 100	> 100	> 100	> 100	> 100	> 100	> 100	> 100
COc1cc2c(cc1OCc1ccccc1)NC(=O)[C@@H]1C[C@@H](O)CN1C2=O	> 100	> 100	> 100	> 100	> 100	> 100	> 100	> 100	> 100	> 100
Cn1c(=O)n2n(c1=O)C1C(=CC2)C2C=CC1n1c(=O)n(C)c(=O)n12 (centres undefined)	> 100	> 100	> 100	> 100	> 100	> 100	> 100	> 100	> 100	> 100
O=C(NC(Cc1c[nH]c2ccccc12)C(=O)O)/C(=C/c1ccccc1)NC(=O)c1ccccc1 (centres undefined)	> 100	> 100	> 100	> 100	> 100	> 100	> 100	> 100	> 100	> 100
CCOC(=O)C1C2C1C1C(C(=O)OCC)C21 (centres undefined)	> 100	> 100	> 100	> 100	> 100	> 100	> 100	> 100	> 100	> 100
O=C(O)c1cc2c(cc1CC(Cc1ccccc1)C(=O)O)CCC2 (centres undefined)	> 100	> 100	> 100	> 100	> 100	> 100	> 100	> 100	> 100	> 100
COC(=O)C1CC(C=O)=C(SC)N1 (centres undefined)	> 50	> 50	> 50	> 50	> 50	> 50	> 50	> 50	> 50	> 50
NC(=O)Nc1n[nH]c(-c2ccccc2)n1	> 100	> 100	> 100	> 100	> 100	> 100	> 100	> 100	> 100	> 100
